Test results from PubChem BioAssay (NCI).
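48-hour exposure; five concentrations; linearly interpolated endpoints. At the GI50, growth is halved. TGI denotes the concentration required for complete inhibition of growth.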

Key:
Experiment in all cases: NCI tumour cell line growth inhibition, 48 h
[1] = system: SN12C renal
[2] = system: LOX IMVI melanoma
[3] = system: HS 578T breast
[4] = system: HCT-116 colon
[5] = system: UACC-257 melanoma
[6] = system: HL-60(TB) leukemia
[7] = system: NCI-H522 lung
[8] = system: CAKI-1 renal
[9] = system: COLO 205 colon
[10] = system: SF-268 CNS
[11] = system: EKVX NSCLC
[12] = system: M14 melanoma
[13] = system: A549 NSCLC
[14] = system: NCI-H460 lung
[15] = system: SNB-19 CNS
[16] = system: SK-OV-3 ovarian
[17] = system: ACHN renal
[18] = system: CCRF-CEM leukemia
[19] = system: OVCAR-3 ovarian
[20] = system: T-47D breast
[21] = system: IGROV1 ovarian
[22] = system: RPMI-8226 leukemia
[23] = system: HOP-62 NSCLC
[24] = system: MDA-MB-435
[25] = system: BT-549 breast
[26] = system: UACC-62 melanoma
[27] = system: MDA-MB-468 breast
[28] = system: A498 renal
[29] = system: OVCAR-8 ovarian
[30] = system: MOLT-4 leukemia
[31] = system: SR leukemia
[32] = system: HT29 colon
[33] = system: SF-295 CNS
[34] = system: DU-145 prostate
[35] = system: UO-31 renal
[36] = system: OVCAR-5 ovarian
[37] = system: SW-620 colon
[38] = system: SNB-75 CNS
[39] = system: MDA-MB-231 breast
[40] = system: OVCAR-4 ovarian
[41] = system: HOP-92 NSCLC
[42] = system: HCT-15 colon
[43] = system: NCI-H226 lung
[44] = system: K-562 leukemia
[45] = system: SK-MEL-28 melanoma
[46] = system: PC-3 prostate
[47] = system: RXF 393 renal
[48] = system: U251 CNS
[49] = system: NCI/ADR-RES ovarian
[50] = system: 786-0 renal
[51] = system: MALME-3M melanoma
[52] = system: SF-539 CNS
[53] = system: SK-MEL-2 melanoma
[54] = system: NCI-H23 lung
[55] = system: SK-MEL-5 melanoma
[56] = system: HCC-2998 colon
[57] = system: KM12 colon
[58] = system: MCF7 breast
[59] = system: TK-10 renal

CN(C)CCOc1ccc(C(=O)C2[C@H](c3ccc(Cl)cc3)[C@@H](c3ccccc3)NC23C(=O)Nc2ccc(Cl)cc23)cc1 (stereo partly drawn)
GI50 [1]: 13.5 µM | TGI [1]: 26.7 µM | GI50 [2]: 13.5 µM | TGI [2]: 26.8 µM | GI50 [3]: 12.5 µM | TGI [3]: 34.2 µM | GI50 [4]: 12.8 µM | TGI [4]: 26 µM | GI50 [5]: 15.7 µM | TGI [5]: 30.6 µM | GI50 [6]: 11 µM | TGI [6]: 28.1 µM | GI50 [7]: 14.8 µM | TGI [7]: 29.1 µM | GI50 [8]: 13.4 µM | TGI [8]: 26.3 µM | GI50 [9]: 15.6 µM | TGI [9]: 29.3 µM | GI50 [10]: 15 µM | TGI [10]: 33.5 µM | GI50 [11]: 14.3 µM | TGI [11]: 28.1 µM | GI50 [12]: 16 µM | TGI [12]: 29.8 µM | GI50 [13]: 14.3 µM | TGI [13]: 28.9 µM | GI50 [14]: 13 µM | TGI [14]: 26.3 µM | GI50 [15]: 15.6 µM | TGI [15]: 29.2 µM | GI50 [16]: 14.3 µM | TGI [16]: 27.7 µM | GI50 [17]: 14.5 µM | TGI [17]: 27.6 µM | GI50 [18]: 16.8 µM | TGI [18]: 34.8 µM | GI50 [19]: 14.2 µM | TGI [19]: 29.9 µM | GI50 [20]: 14.6 µM | TGI [20]: 30 µM | GI50 [21]: 14.3 µM | TGI [21]: 28.2 µM | GI50 [22]: 18.6 µM | TGI [22]: 43.4 µM | GI50 [23]: 12.7 µM | TGI [23]: 26 µM | GI50 [24]: 14.5 µM | TGI [24]: 28.2 µM | GI50 [25]: 14.4 µM | TGI [25]: 27.7 µM | GI50 [26]: 15.1 µM | TGI [26]: 28.7 µM | GI50 [27]: 8.98 µM | TGI [27]: 22.3 µM | GI50 [28]: 14.6 µM | TGI [28]: 28.1 µM | GI50 [29]: 16.3 µM | TGI [29]: 31.5 µM | GI50 [30]: 12.6 µM | TGI [30]: 29.6 µM | GI50 [31]: 13.7 µM | TGI [31]: 29.7 µM | GI50 [32]: 14.4 µM | TGI [32]: 28.1 µM | GI50 [33]: 16.3 µM | TGI [33]: 30.5 µM | GI50 [34]: 15.9 µM | TGI [34]: 30.2 µM | GI50 [35]: 12.8 µM | TGI [35]: 25.5 µM | GI50 [36]: 14.6 µM | TGI [36]: 27.8 µM | GI50 [37]: 12.3 µM | TGI [37]: 25.3 µM | GI50 [38]: 10.4 µM | TGI [38]: 24.7 µM | GI50 [39]: 15.1 µM | TGI [39]: 28.7 µM | GI50 [40]: 14.4 µM | TGI [40]: 29 µM | GI50 [41]: 8.92 µM | TGI [41]: 22.2 µM | GI50 [42]: 15.2 µM | TGI [42]: 28.8 µM | GI50 [43]: 15.3 µM | TGI [43]: 33.1 µM | GI50 [44]: 13 µM | TGI [44]: 34.2 µM | GI50 [45]: 16.2 µM | TGI [45]: 29.9 µM | GI50 [46]: 15.5 µM | TGI [46]: 31.7 µM | GI50 [47]: 10.8 µM | TGI [47]: 23.6 µM | GI50 [48]: 15.3 µM | TGI [48]: 29.3 µM | GI50 [49]: 16.6 µM | TGI [49]: 31.4 µM | GI50 [50]: 15 µM | TGI [50]: 29.2 µM | GI50 [51]: 14.7 µM | TGI [51]: 29.7 µM | GI50 [52]: 14.7 µM | TGI [52]: 27.8 µM | GI50 [53]: 15.9 µM | TGI [53]: 30 µM | GI50 [54]: 16.4 µM | TGI [54]: 31 µM | GI50 [55]: 15.8 µM | TGI [55]: 29.2 µM | GI50 [56]: 13.4 µM | TGI [56]: 26.9 µM | GI50 [57]: 13.6 µM | TGI [57]: 29 µM | GI50 [58]: 5.71 µM | TGI [58]: 18.8 µM | GI50 [59]: 14 µM | TGI [59]: 27.3 µM
